Measured values taken from patent publication US11447533B2, “Antimicrobial and anticancer peptides and conjugates and compositions, methods, articles and kits relating thereto” (George Mason Research Foundation, Inc., priority 2018, dated 2022).
Entries after “also recorded” stand apart in the source; their conditions may differ.

How the values were obtained:
[1] = system: E. coli ML35p outer membrane; experiment: Outer membrane disruption (β-lactamase leakage, nitrocefin); assay type: cell-based, Escherichia coli; conditions: for time to reach maximum signal for nitrocefin hydrolysis / outer membrane disruption (β-lactamase activity) relative to HCMAB: DPBS
Description: Interactions with Bacterial Membranes. Interaction of the peptides with bacterial membranes in different phosphate buffers were evaluated using E. coli ML35p, constructed in our laboratory. At first, competent cells of E. coli ML35 were produced by conventional competent cell preparation method, then transformed with pBR322 plasmid. Transformed colonies were selected after growing on Luria-agar containing 50 μg/mL ampicillin. A single transformed colony was grown in presence of ampicillin first in Luria broth and then in MHBII and stored as 20% glycerol stock at −80° C. This frozen stock, on the day of the experiment, was thawed and grown in MHBII containing ampicillin up to OD600 nm=0.8-0.9, washed with PBS and then suspended in the respective buffer up to the required OD600 nm for use.
Membrane Disruptions. The outer and the inner membrane disruptions by the peptides were evaluated by incubating bacterial suspension with peptides and then measuring the activity of enzymes leaked out of the cells. 100 μL of 10× concentration of peptide in water was incubated with 900 μL bacterial suspension (OD600 nm˜0.1) in respective buffer for 3 hours at room temperature with gentle rotation. Then the cells and debris were separated by centrifugation (10000 r.p.m. for 30 mins) and the supernatant was collected and tested for activity of enzymes that had leaked out of the bacterial cells. HCMAB was used as a positive control to cause 100% membrane disruption and water as a negative causing 0% disruption.
The outer membrane disruption was tested by using the activity of beta-lactamase present in the periplasmic space of E. coli ML35p. Peptides when disrupt the outer membrane enough to cause beta-lactamase to come out, the degree of disruption can be measured by the virtue of the kinetics of the enzyme and using a chromogenic cephalosporin substrate called nitrocefin. β-lactamase mediated hydrolyzed product of nitrocefin has an absorbance αmax=486 nm. Supernatant collected from the incubation of peptide with bacteria was added with nitrocefin solution in DPBS and incubated at 35° C. and continuous absorbance readings. The slope of the linear section of the absorbance curve (absorbance vs time), was used as a measure of membrane disruption and the % Disruption was calculated as: Equation 7: […]
Some of the ATRA1-variants were further tested for their ability to disrupt outer and inner membranes to form pores or disruptions sufficiently large so as to allow enzymes to leak out of their cellular compartments (cytoplasm or periplasmic space). For this purpose, two reporter molecules were used with one being the substrate of a cytoplasmic enzyme and the other was a substrate for an enzyme residing in the periplasmic space. One of the reporters, nitrocefin was the substrate for β-lactamase, which is present in the bacterial periplasm, whereas the other molecule, ONPG, was the substrate for β-galactosidase, which resides in the cytoplasm of E. coli ML35p strain. […] Similarly, β-galactosidase activity in the supernatants is evidence of inner membrane disruption and possible pore formation. When the aforesaid supernatants were tested for nitrocefin and ONPG hydrolysis, the corresponding absorbance increased with time (data not shown) indicating β-lactamase and β-galactosidase activity, respectively, and thus disruption of both the inner and outer membranes. The slopes of the increase in absorbance as a function of time provides the rate of enzyme activity. The enzyme activities in supernatants collected after incubation of bacteria with the quaternary ammonium surfactant, hexadecyltrimethylammonium bromide (HCMAB) was used as an internal reference for 100% membrane disruption. Enzyme activity for supernatants collected for cells incubated in the absence of peptide provided a reference for 0% membrane disruption. Bee venom peptide melittin was used as a positive control. […]

[2] = Endotoxin binding: competitive displacement of BODIPY TR-Cadaverine from LPS; design: species or system Escherichia coli; conditions: 5 μM peptide; for LPS binding (BC displacement), in words: 10 μM BC, 10 μg/mL LPS, low ionic-strength 10 mM Na-PO4; for increase in affinity for LPS compared to the peptide lacking the hydrophobic tail: vs ATRA1 / ATRA1-R3W2
Description: (§1) FIGS. 2A-2B are graphs showing endotoxin binding. The figures depict the competitive displacement of BC from LPS/LTA by the peptides. 5 μM of each peptide was incubated with 10 μM BC and 10 μg/mL LPS from E. coli (0111:B4) or LTA from S. aureus. Fluorescence intensity was measured at excitation=580 nm and emission=620 nm. 10 μM BC without endotoxin was used as 100% displacement while 10 μM BC with 10 μg/mL LPS/LTA without any peptide as 0% displacement and the % displacement of BC by each peptide was calculated accordingly. […] had been used as a positive control. The horizontal dotted line coincides with the % displacement of BC by ATRA1 on the y-axis.
(§2) FIGS. 6A-6B are graphs showing endotoxin (LPS (FIG. 6A) and LTA (FIG. 6B)) binding. Competitive displacement of BC from LPS/LTA. In each case, 5 μM peptide was incubated with 10 μM BC and 10 μg/mL LPS from E. coli (0111:B4) or LTA from S. aureus. Fluorescence intensity was measured using excitation=580 nm and emission=620 nm. As a positive control 10 μM BC without endotoxin was used as a reference for 100% displacement while 10 μM BC with 10 μg/mL LPS/LTA without any peptide as a negative control and a reference for 0% displacement. These controls were used to calculate % BC displacement for each peptide.
(§3) Endotoxin Binding. The binding of endotoxin (LPS/LTA) was evaluated using a fluorogenic conjugateBODIPY TR-Cadaverine (BC). BC binds endotoxin loses its fluorescence. The peptide competitively displaces BC from endotoxin and the fluorescence is reestablished. Competitive inhibition of endotoxin-BC binding was utilized due to presence of peptides already in complexion with endotoxin. 25 μL of 20 μM of peptides in 10 mM Na—PO4 buffer were incubated with 25 μL of LPS (40 μg/mL) or LTA (40 μg/mL) for 15 min and then added with 50 μL of BC (20 uM). Peptides bind to LPS or LTA and competitively prevents BC bind to the endotoxin. BC loses its fluorescence on binding to endotoxin. The fluorescence intensity of the unbound BC was measured at excitation=580 nm and emission=620 nm.
(§4) BC contains two functional moieties: BODIPY (boron-dipyrromethene) and cadaverine connected via a carboxamide. BODIPY is the fluorophore of BC and fluoresces in the free state in solution but loses fluorescence when bound to LPS/LTA. The competitive displacement of BC from LPS/LTA by AMPs and thus regeneration of the fluorescence has frequently been used to estimate the binding strength of AMPs with LPS/LTA. In the present studies, 5 μM of each peptide was used to displace BC from LPS/LTA. […] Such observation contradicts the initial assumption that substitution of Lys with arginine would result in increased efficiency of LPS binding. However, with sequential substitutions of Lys with arginine, starting with ATRA1-AR, peptide variants show increased LPS binding with each additional arginine substitution. In terms of LPS binding: ATRA1-AR<ATRA1-AR2<ATRA1-AR3. In ATRA1-R3, the lysine residues at 9th, 5th and 1st positions of ATRA1 were substituted with arginine. In ATRA1-R6 all of the lysine residues were replaced with arginine.

[3] = Endotoxin binding: competitive displacement of BODIPY TR-Cadaverine from LTA; design: species or system Staphylococcus aureus; conditions: 5 μM peptide; for LTA binding (BC displacement), in words: 10 μM BC, 10 μg/mL LTA, 10 mM Na-PO4; for higher degree of LTA binding than parent peptide: vs ATRA-1 / ATRA1-R3W2
Description: as §1, §2, §3, §4

| Sequence | time to reach maximum signal for nitrocefin hydrolysis [1] | outer membrane disruption (β-lactamase activity) relative to HCMAB ([1]; HCMAB = 100%) | LPS binding (BC displacement), in words [2] | LTA binding (BC displacement), in words [3] | also measured |
| --- | --- | --- | --- | --- | --- |
| RRWKRFFKRWK (SEQ ID NO: 15) [ATRA1-R3W2] | approximately 30 mins | Higher outer membrane disruption | more effective in LPS binding than either of ATRA1-R3 and ATRA1-W2; also recorded: binds LPS marginally greater than ATRA1 | far effective than ATRA1 in binding LTA | outer membrane disruption (β-lactamase activity) relative to HCMAB ([1]; HCMAB = 100%, listed as ATRA-R3W2): approximately 4% |
| KRWKKWWKKWK (SEQ ID NO: 14) [ATRA1-W4] | approximately 30 mins | – | higher efficacy to bind LPS than the parent ATRA1 | – | – |
| KRFKKFFKKLKNSVKKRAKKFFKKPK (SEQ ID NO: 53) [NA-CATH26, first 26 residues of NA-CATH] | – | significantly lower degrees of β-lactamase leakage | – | bound LTA to a significantly lower degree than NA-CATH | decrease in affinity for LPS relative to NA-CATH ([2]; deletion of hydrophobic tail): ~30% |
| KRFKKFFKKLKGGVIGVTFPF (SEQ ID NO: 38) [ATRA1-HYD, ATRA1 with hydrophobic tail of NA-CATH joined at the C-terminus by a short -GG- segment] | – | – | – | – | increase in affinity for LPS compared to the peptide lacking the hydrophobic tail [2]: ~2 fold; higher degree of LTA binding than parent peptide [3]: ~2 fold |
| RRFKRFFKRLK (SEQ ID NO: 9) [ATRA1-R3] | – | in between those observed for ATRA1 and ATRA1-F | higher LPS binding than ATRA1 | – | – |
| KRFKKFFKKLK (SEQ ID NO: 2) [ATRA1, first 11 residues of NA-CATH] | – | – | – | – | outer membrane disruption relative to HCMAB ([1]; 10 mM phosphate buffer, HCMAB = 100%): higher degree of disruption than ATRA1-R3W2 |
| RRWKRFFKRWKGGVIGVTFPF (SEQ ID NO: 50) [ATRA1-R3W2-HYD, ATRA1-R3W2 with hydrophobic tail of NA-CATH joined by -GG-] | – | 160% | binds LPS with similar affinity as ATRA1-HYD | – | increase in affinity for LPS compared to the peptide lacking the hydrophobic tail [2]: ~2 fold; higher degree of LTA binding than parent peptide [3]: ~2 fold |
| KRAKKFFKKLK (SEQ ID NO: 4) [ATRA1-A] | – | – | decreased LPS binding relative to ATRA1 | significantly lower LTA binding than ATRA1 | – |
| RRFRRFFRRLR (SEQ ID NO: 10) [ATRA1-R6] | approximately 30 mins | – | bound LPS more effectively than ATRA1-R3 | – | – |
| KRAKKFFKRLK (SEQ ID NO: 6) [ATRA1-AR] | – | – | lowest LPS binding of all of the peptides tested | – | – |
